Key:
Assay in all cases: Bliss excess, mean over the matrix (fraction); higher = more synergy
[1] = system: NCI-H1688 (Small Cell Lung Carcinoma)
In short: (§1)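 Cell lines grown in DMEM/F12 or RPMI with 10% FBS were plated in 1536-well plates and held 24 hours at 37°C, 5% CO2 before 72 hours of exposure to two-drug dose matrices, with DMSO typically at 0.2%. CellTiter-Glo 2.0 luminescence gave viability, which was converted to inhibition. Vehicle wells were set to 0 and blank wells to 1. Combination Emax is the second-highest inhibition in the matrix, and Bliss excess is the observed combination effect minus the expected EA + EB − EA·EB, where EA and EB are the single-agent effects.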

[2] = system: EFM-192A (Breast Carcinoma)
In short: as §1

[3] = system: NOMO-1 (Acute Myeloid Leukemia)
In short: as §1

HCC38 (Breast Carcinoma) = system: HCC38 (Breast Carcinoma)
In short: as §1

[4] = system: MES-SA (Other Solid Carcinomas)
In short: as §1

[5] = system: ETK-1 (Biliary Tract Carcinoma)
In short: as §1

CS1 (Chondrosarcoma) = system: CS1 (Chondrosarcoma)
In short: as §1

[6] = system: MEG-01 (Chronic Myelogenous Leukemia)
In short: as §1

SK-MEL-1 (Melanoma) = system: SK-MEL-1 (Melanoma)
In short: as §1

[7] = system: HOP-92 (Non-Small Cell Lung Carcinoma)
In short: as §1

[8] = system: KG-1 (Acute Myeloid Leukemia)
In short: as §1

[9] = system: EKVX (Non-Small Cell Lung Carcinoma)
In short: as §1

MCF7 (Breast Carcinoma) = system: MCF7 (Breast Carcinoma)
In short: as §1

[10] = system: PA-TU-8902 (Pancreatic Carcinoma)
In short: as §1

HuO9 (Osteosarcoma) = system: HuO9 (Osteosarcoma)
In short: as §1

[11] = system: JHH-6 (Hepatocellular Carcinoma)
In short: as §1

[12] = system: D-283MED (Other Solid Carcinomas)
In short: as §1

MSTO-211H (Mesothelioma) = system: MSTO-211H (Mesothelioma)
In short: as §1

[13] = system: SNG-M (Endometrial Carcinoma)
In short: as §1

[14] = system: SK-LMS-1 (Other Solid Carcinomas)
In short: as §1

SMILES	Bliss excess [1]	Bliss excess [2]	Bliss excess [3]	Bliss excess (HCC38 (Breast Carcinoma))	Bliss excess [4]	Bliss excess [5]	Bliss excess (CS1 (Chondrosarcoma))	Bliss excess [6]	Bliss excess (SK-MEL-1 (Melanoma))	Bliss excess [7]	Bliss excess [8]	Bliss excess [9]	Bliss excess (MCF7 (Breast Carcinoma))	Bliss excess [10]	Bliss excess (HuO9 (Osteosarcoma))	Bliss excess [11]	Bliss excess [12]	Bliss excess (MSTO-211H (Mesothelioma))	Bliss excess [13]	Bliss excess [14]
COc1cc2c(cc1OCCCCCOc1cc3c(cc1OC)C(=O)N1C=C(C)C[C@H]1C=N3)N=C[C@@H]1CC(C)=CN1C2=O [SG3199] + O=C(c1cc(Cc2n[nH]c(=O)c3ccccc23)ccc1F)N1CCN(C(=O)C2CC2)CC1 [Olaparib] (first compound max 0.001 µM, 7x7, partner max 10 µM)	-0.0264	-0.053	-0.0328	-0.0356	0.0626	-0.0021	-0.0451	-0.0326	-0.0239	-0.0048	0.0015	-0.0424	-0.0444	-0.0291	-0.0273	-0.0353	-0.0347	-0.0175	-0.0222	-0.0375
CC1(C)CCC(CN2CCN(c3ccc(C(=O)NS(=O)(=O)c4ccc(NCC5CCOCC5)c([N+](=O)[O-])c4)c(Oc4cnc5[nH]ccc5c4)c3)CC2)=C(c2ccc(Cl)cc2)C1 [Venetoclax] + CCN(CCO)CCCOc1ccc2c(Nc3cc(CC(=O)Nc4cccc(F)c4)[nH]n3)ncnc2c1 [AZD2811] (first compound max 1 µM, 7x7, partner max 1 µM)	0.0436	0.0097	0.182	0.0347	0.0315	-0.0793	-0.0259	-0.0108	-0.022	0.0135	0.0766	-0.044	0.0142	-0.0417	0.0203	-0.049	0.0579	-0.0066	-0.0246	-0.0616
COc1cccc(OCCCN)c1-c1cc(Nc2cnc(C#N)cn2)n[nH]1 [Prexasertib] + C=CCn1c(=O)c2cnc(Nc3ccc(N4CCN(C)CC4)cc3)nc2n1-c1cccc(C(C)(C)O)n1 [AZD1775] (first compound max 1 µM, partner max 1 µM)	0.186	0.0662	0.0539	0.0246	0.078	0.0651	0.0426	0.0016	-0.0084	-0.0601	0.0038	-0.024	0.0197	0.0716	0.109	0.0849	0.079	0.0083	0.0698	0.0434
COc1cccc(OCCCN)c1-c1cc(Nc2cnc(C#N)cn2)n[nH]1 [Prexasertib] + Cc1cc2ncnn2cc1Nc1ncc2c(n1)n(C1CCOCC1)c(=O)n2C [AZD7648] (first compound max 1 µM, 7x7, partner max 10 µM)	0.0044	-0.0199	-0.0388	-0.0592	-0.02	0.059	-0.0285	-0.0363	-0.0247	0.0218	-0.0264	-0.0474	0.0688	-0.0059	-0.105	0.0194	-0.0193	-0.0059	-0.0284	0.0078
CC1(C)CCC(CN2CCN(c3ccc(C(=O)NS(=O)(=O)c4ccc(NCC5CCOCC5)c([N+](=O)[O-])c4)c(Oc4cnc5[nH]ccc5c4)c3)CC2)=C(c2ccc(Cl)cc2)C1 [Venetoclax] + Cn1cnc2c(F)c(Nc3ccc(Br)cc3Cl)c(C(=O)NOCCO)cc21 [Selumetinib] (first compound max 1 µM, 7x7, partner max 3 µM)	-0.0333	-0.0245	0.0999	-0.0322	-0.0129	-0.0333	-0.0498	-0.0242	-0.0332	-0.0338	0.0735	-0.0732	-0.058	-0.0178	-0.0173	-0.0252	0.009	-0.0393	-0.0282	-0.029
C=CCn1c(=O)c2cnc(Nc3ccc(N4CCN(C)CC4)cc3)nc2n1-c1cccc(C(C)(C)O)n1 [AZD1775] + C[C@@H]1COCCN1C2=NC(=NC(=C2)C3(CC3)[S@](=N)(=O)C)C4=C5C=CNC5=NC=C4 [AZD6738] (first compound max 1 µM, partner max 10 µM)	0.0326	-0.0053	0.0261	-0.0805	0.01	0.0427	0.0087	-0.0005	-0.0125	-0.0231	-0.0218	-0.0087	0.0332	0.0315	0.0672	-0.0073	0.0327	0.0418	-0.0128	0.0039
Cc1c2c(nn1C)CSCc1cc(n(C)n1)CSc1cc(c3ccccc3c1)OCCCc1c(C(=O)O)n(C)c3c-2c(Cl)ccc13 [AZD5991] + C[C@@H]1COCCN1C2=NC(=NC(=C2)C3(CC3)[S@](=N)(=O)C)C4=C5C=CNC5=NC=C4 [AZD6738] (first compound max 1 µM, 7x7, partner max 10 µM)	0.0406	0.0335	-0.0006	0.0528	0.0653	0.0015	0.0029	-0.0227	-0.0255	0.0003	0.0155	0.0337	0.0286	0.0111	0.0259	-0.079	-0.0109	0.0032	0.0516	-0.0471
C[C@@H]1COCCN1c1cc(C2([S@](C)(=N)=O)CC2)nc(-c2ccnc3[nH]ccc23)n1 [AZD6738] + O=C(c1cc(Cc2n[nH]c(=O)c3ccccc23)ccc1F)N1CCN(C(=O)C2CC2)CC1 [Olaparib] (first compound max 10 µM, 7x7, partner max 10 µM)	0.0133	0.0387	-0.0031	0.0122	-0.0519	0.0197	0.0318	-0.0458	-0.0012	0.0158	-0.0154	0.0206	0.0135	-0.0251	-0.0166	-0.0039	-0.0148	-0.0082	0.0294	0.0027
Cc1c2c(nn1C)CSCc1cc(n(C)n1)CSc1cc(c3ccccc3c1)OCCCc1c(C(=O)O)n(C)c3c-2c(Cl)ccc13 [AZD5991] + C[C@@H](Nc1cc(F)cc(F)c1)c1cc(C(=O)N(C)C)cc2c(=O)cc(N3CCOCC3)oc12 [AZD8186] (first compound max 1 µM, 7x7, partner max 3 µM)	0.0171	-0.0207	0.0361	0.011	-0.0381	-0.0221	0.0031	0.0019	-0.0232	0.0222	0.0031	0.0062	-0.01	-0.0361	0.0127	-0.0281	-0.0186	-0.0019	-0.0242	-0.0056
CC1(C)CCC(CN2CCN(c3ccc(C(=O)NS(=O)(=O)c4ccc(NCC5CCOCC5)c([N+](=O)[O-])c4)c(Oc4cnc5[nH]ccc5c4)c3)CC2)=C(c2ccc(Cl)cc2)C1 [Venetoclax] + CN(C)CCCOc1ccc(-c2ccc3ncc4c(c3c2)n(C2CCOCC2)c(=O)n4C)cn1 [AZD0156] (first compound max 1 µM, 7x7, partner max 1 µM)	0.0209	-0.0508	0.0226	0.0361	-0.0333	-0.021	0.0599	-0.0291	-0.0397	0.0047	0.0741	-0.0365	-0.0152	-0.0507	0.0483	-0.0391	0.0189	-0.0243	-0.06	0.001
COc1cccc(OCCCN)c1-c1cc(Nc2cnc(C#N)cn2)n[nH]1 [Prexasertib] + CCc1c2c(nc3ccc(O)cc13)-c1cc3c(c(=O)n1C2)COC(=O)[C@]3(O)CC [SN-38] (first compound max 1 µM, 7x7, partner max 0.3 µM)	0.111	0.0304	-0.0319	-0.0201	-0.0714	0.0465	-0.0742	-0.0073	-0.0593	0.0418	-0.0454	-0.0347	-0.0081	0.049	-0.0301	0.0337	-0.0222	-0.0857	-0.0534	-0.0239
CCN(CCO)CCCOc1ccc2c(Nc3cc(CC(=O)Nc4cccc(F)c4)[nH]n3)ncnc2c1 [AZD2811] + C[C@@H]1COCCN1C2=NC(=NC(=C2)C3(CC3)[S@](=N)(=O)C)C4=C5C=CNC5=NC=C4 [AZD6738] (first compound max 1 µM, 7x7, partner max 10 µM)	-0.0054	-0.0201	-0.0118	-0.0372	-0.0328	-0.0627	-0.0842	-0.0203	-0.0409	0.0305	-0.0332	-0.0558	-0.0565	-0.0532	-0.0491	-0.0342	-0.0541	-0.0279	-0.0273	-0.0249
CCN(CCO)CCCOc1ccc2c(Nc3cc(CC(=O)Nc4cccc(F)c4)[nH]n3)ncnc2c1 [AZD2811] + O=C(c1cc(Cc2n[nH]c(=O)c3ccccc23)ccc1F)N1CCN(C(=O)C2CC2)CC1 [Olaparib] (first compound max 1 µM, 7x7, partner max 10 µM)	-0.0131	0.0138	0.0454	-0.003	0.0754	0.0049	-0.0515	-0.0628	-0.0325	-0.0048	0.0382	-0.0303	-0.0023	0.0081	0.0215	-0.0127	-0.0234	0.0178	-0.018	0.0076
CN(CCO)CC[C@H](CSc1ccccc1)Nc1ccc(S(=O)(=O)NC(=O)c2ccc(N3CCC([C@@H](O)c4ccccc4-c4ccc(Cl)cc4)CC3)cc2)cc1S(=O)(=O)C(F)(F)F [AZD4320] + C[C@@H]1COCCN1C2=NC(=NC(=C2)C3(CC3)[S@](=N)(=O)C)C4=C5C=CNC5=NC=C4 [AZD6738] (first compound max 1 µM, 7x7, partner max 10 µM)	-0.0076	-0.0226	0.0303	0.0306	-0.0382	-0.0463	-0.0499	-0.0267	-0.0757	0.0076	0.0279	-0.0458	-0.0145	-0.0378	-0.0242	-0.023	0.0139	0.0002	-0.0426	-0.0432
